Square brackets hold non-standard residues; d marks the D form. Peptide text beside a SMILES is read from it.
Tested on: THP1-PMA-differentiated macrophages
Assay: LPS-induced cytokine and chemokine release in PMA differentiated THP1 macrophages (ELISA)
Assay type: cell-based, human
Excerpt: The technique used is a Sandwich ELISA, which allows measuring the amount of antigen between two layers of antibodies (i.e. capture and detection antibody). The antigen to be measured must contain at least two antigenic sites capable of binding to antibody, since at least two antibodies act in the sandwich. Either monoclonal or polyclonal antibodies can be used as the capture and detection antibodies in Sandwich ELISA systems. Monoclonal antibodies recognize a single epitope that allows fine detection and quantification of small differences in antigen. A polyclonal is often used as the capture antibody to pull down as much of the antigen as possible.
In the following the procedure will be set forth describing how cytokine production from human PMA differentiated THP1 cells challenged by LPS for 6 h was induced in order to test the ability of JNK inhibitors of the present invention, in particular of a JNK inhibitor with SEQ ID NO: 172, to reduce stimulation-induced cytokine release. THP1 cells were stimulated ex-vivo by different ligands for the readout of cytokine release. At non toxic doses, JNK inhibitor efficacy is indicated by the decrease of the cytokine levels as compared to non-treated samples and is monitored by ELISA. The toxicity of the compound are evaluated by the reduction of a tretazolium salt (MTS) to formazan, giving a purple colour.
The cells were counted. The desired number of cells was taken and resuspended in the amount of media necessary to get a dilution of 1'000'000 cells/ml. 100 nM of PMA was added to induce the differentiation of the THP1 from suspension monocytes to adherent macrophages. The cells were plated into the wells in […] medium at plating densities of 100'000 cells/well. After inoculation, the plates were incubated at 37° C., 5% CO2 and 100% relative humidity 3 days to let them differentiate, prior to the addition of experimental drugs.
The plates were treated with 50 µl of medium or a solution of 4× the final desired drug concentration (0, 100 nM, 1, 3, 10 or 30 µM final for JNK compound or at 0, 10, 100 nM, 1, 3 or […] final for the SP600125 positive control). Following drug addition, the plates were incubated for an additional 1 h at 37° C., 5% CO2 and 100% relative humidity. […]
After 6 hours, 100 µl of the supernatant were transferred to new 96 well plates. Those plates were sealed and stored at −20° till the analysis by ELISA (e.g. see example 4) of the secretion of the cytokines.
Analyses of the data are performed as indicated in the ELISA (see example 4). Briefly, for ELISA: Average the triplicate readings for each standard control and each sample. Subtract the average zero standard optical density (O.D). Create a standard curve plotting the log of the cytokine concentration versus the log of the O.D and the best fit line can be determined by regression analysis. If samples have been diluted, the concentration read from the standard curve must be multiplied by the dilution factor. A standard curve should be generated for each set of samples assayed. The outliers data were avoid using Grugg's test. Then the data which weren't in the interval of two times the SD, were discard. […] The independent experiments are pooled (N>3).

CC(C)C[C@H](NC(=O)[C@H](CC(N)=O)NC(=O)[C@H](CC(C)C)NC(=O)[C@@H](NC(=O)[C@@H](C)NC(=O)[C@@H]1CCCN1C(=O)[C@H](CCCNC(=N)N)NC(=O)[C@@H](CCCCN)NC(=O)[C@@H]1CCCN1C(=O)[C@H](CCCNC(=N)N)NC(=O)[C@@H](CCCNC(=N)N)NC(=O)[C@H](CCCNC(=N)N)NC(=O)[C@H](CCCNC(=N)N)NC(=O)[C@H](CCC(N)=O)NC(=O)[C@@H](CCCNC(=N)N)NC(=O)[C@H](CCCNC(=N)N)NC(=O)[C@H](CCCCN)NC(=O)[C@H](CCCCN)NC(=O)[C@H](N)CCCNC(=N)N)[C@@H](C)O)C(=O)N[C@H](Cc1ccccc1)C(N)=O [SEQ ID NO: 172, rKKRrQRRrRPkRPaTLNLf] (H-[dR]KKR[dR]QRR[dR]RP[dK]RP[dA]TLNL[dF]-NH2)
LPS-induced IL6 release, potency compared with SEQ ID NO: 197, SEQ ID NO: 45 and SP 600125 (LPS 6 h (10 ng/ml)): higher potency | LPS-induced TNFα release, potency compared with SEQ ID NO: 197, SEQ ID NO: 45 and SP 600125 (LPS 6 h (10 ng/ml)): higher potency | LPS-induced TNFα release, potency compared with SEQ ID NO: 197 and SEQ ID NO: 196 (PMA differentiated macrophages): higher potency | LPS-induced IL-6 release, potency compared with SEQ ID NO: 197 and SEQ ID NO: 196 (PMA differentiated macrophages, LPS 6 h): higher potency | LPS-induced cytokine and chemokine release (TNF, IL 6, MCP1) (THP1pma, 6 h, 3 or 10 ng/ml LPS): blocks LPS-induced cytokine and chemokine release

— US20160115200A1, “New Use for JNK Inhibitor Molecules for Treatment of Various Diseases” (XIGEN INFLAMMATION LTD., priority 2013, published 2016)
